What follows are molecules tested against T1, Seed linoleate 13S-lipoxygenase-1 (Glycine max, UniProt P08170) (assay: Inhibitory activity against Soybean type 1 Lipoxygenase (SBLO) was determined).
T1 sequence (P08170 whole entry): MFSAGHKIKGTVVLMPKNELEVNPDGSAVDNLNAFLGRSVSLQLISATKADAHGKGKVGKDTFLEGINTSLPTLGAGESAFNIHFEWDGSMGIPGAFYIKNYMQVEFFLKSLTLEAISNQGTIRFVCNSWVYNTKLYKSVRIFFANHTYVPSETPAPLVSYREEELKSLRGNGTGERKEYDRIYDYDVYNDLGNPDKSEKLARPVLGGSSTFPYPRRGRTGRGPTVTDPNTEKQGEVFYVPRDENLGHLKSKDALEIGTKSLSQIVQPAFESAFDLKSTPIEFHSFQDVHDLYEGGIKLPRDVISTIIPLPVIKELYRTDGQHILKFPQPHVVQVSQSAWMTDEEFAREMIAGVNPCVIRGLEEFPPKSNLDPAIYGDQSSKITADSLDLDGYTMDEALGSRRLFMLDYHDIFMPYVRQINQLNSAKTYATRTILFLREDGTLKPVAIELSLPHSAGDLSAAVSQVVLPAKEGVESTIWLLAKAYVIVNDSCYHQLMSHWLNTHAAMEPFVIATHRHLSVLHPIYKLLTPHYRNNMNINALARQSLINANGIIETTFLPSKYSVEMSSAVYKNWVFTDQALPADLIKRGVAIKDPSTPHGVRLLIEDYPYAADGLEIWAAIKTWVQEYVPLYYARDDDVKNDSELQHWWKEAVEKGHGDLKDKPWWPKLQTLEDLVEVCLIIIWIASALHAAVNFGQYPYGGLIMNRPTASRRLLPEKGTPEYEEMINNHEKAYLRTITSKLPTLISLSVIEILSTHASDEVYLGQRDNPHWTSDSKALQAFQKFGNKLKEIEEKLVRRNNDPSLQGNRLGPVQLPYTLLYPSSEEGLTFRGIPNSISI

SMILES | Ki [µM]
CCCCCCCCC1OC1CCCCCCCC(=O)O (configuration not stated) | > 100
CCCCCC1OC1CCCCCCCCCCC(=O)O (configuration not stated) | > 100
CCCCCC1SC1C/C=C/CCCCCCCC(=O)O (configuration not stated) | 2
CCCCC/C=C/CC1OC1CCCCCCCC(=O)O (configuration not stated) | > 100
CCCCCCCCC1SC1CCCCCCCC(=O)O (configuration not stated) | > 100
CCCCCC1SC1CCCCCCCCCCC(=O)O (configuration not stated) | 4
CCCCC/C=C/CC1SC1CCCCCCCC(=O)O (configuration not stated) | > 100

Reference: ChEMBL document CHEMBL1126362, “Episulfide inhibitors of lipoxygenase” (Bioorg Med Chem Lett, 1992)
